# Experimental data taken from patent publication US20010012854A1, “MULTICATALYTIC PROTEASE INHIBITORS FOR USE AS ANTI-TUMOR AGENTS” (priority 1997, published 2001).
# Tests used:
# [1] = tested on: Jurkat Human T Cell Leukemia Line; assay: Jurkat cell viability assay (XTT reduction); assay type: cell-based; settings: Jurkat cells, 24 hours, viability by XTT reduction, read-out: Toxicity (IC50)
# Protocol: f. Cell viability assay. Jurkat cells were treated with MCP inhibitors or vehicle for 30 min. at 37° C. Next, ionomycin (1 μM) and the phorbol ester PMA (10 ng/ml) were added, together with 0.2% ethanol. After 24 h, cell viability was assessed by reduction of XTT (Sigma, X4251). To each well, 50 μl of XTT (1 mg/ml) and 25 μl PMS (Sigma 9625, 5 mM) were added. After 3 h at 37° C., the OD of each well was read at 450 nm/690 nm by a plate reader.
# (§1) The rank-order potency for Jurkat cell killing precisely matched the order for MCP inhibition (Table 2, below).
# [2] = tested on: Normal human fibroblast cell line (WI-38); assay: Detachment, apoptotic nuclear changes and PARP cleavage in normal fibroblasts; assay type: cell-based; settings: normal WI-38, 10 μM, up to 22 h
# Protocol: (§2) c. Treatment of cells with MCP inhibitor. Cells were treated with a specified MCP Inhibitor, a standard anticancer agent (etoposide or cisplatin), or DMSO (vehicle). During this process, morphological changes and cellular detachment (for attached cell lines) were monitored. At each time point, cells were harvested, and used for measurement of apoptosis and other biochemical events. In Example 1, infra, involving YVAD-CMK, Compound A was first added to Jurkat T cells. This was followed immediately by dividing the cells into multiple tissue culture flasks. YVAD-CMK was then added to an indicated concentration.
# (§3) d. Flow cytometry nuclear staining and DNA fragmentation assays. DNA content analysis using flow cytometry was performed as described previously (Nicoletti, I., et al. J. Immunol. Methods 139:271-279, 1992). To assay nuclear morphology, cells were washed with PBS, fixed with 70% ethanol for 1 h, and stained with Hoechst 33258 (1 mM) for 30 min. The nuclear morphology of cells was visualized by fluorescence microscope (OLYMPUS BH2). DNA fragmentation was assayed as described previously (Grant, S., et al. Cancer Res. 52:6270-6278, 1992).
# (§4) e. Whole cell extracts and western blot assay. To prepare whole cell extracts, cells were washed with PBS, and homogenized in lysis buffer (50 mM Tris, pH 8.0, 5 mM EDTA, 150 mM NaCl, 0.5% Nonidet P-40, 0.5 mM PMSF and 0.5 mM dithiothreitol). Following 30 min rocking at 4° C., the lysates were centrifuged and the supernatants were collected as whole cell extracts. The protein samples were then analyzed by sodium dodecyl sulfate-6% polyacrylamide gel electrophoresis (20-60 μg protein per lane) followed by the enhanced chemiluminescence Western blot assay using specific antibodies to CPP32, PARP, p21, p27 or RB.
# (§5) Whether Compound A has, any selectivity in induction of apoptosis between transformed and normal cells was investigated. Normal human fibroblast cell line (WI-38) and its SV40-transformed derivative (WI-38 VA13) were utilized. […]
# [3] = tested on: SV40-transformed human fibroblasts (WI-38 VA13); assay: Detachment, apoptotic nuclear changes and PARP cleavage in SV40-transformed fibroblasts; assay type: cell-based; settings: WI-38 VA13, 10 μM, up to 22 h
# Protocol: as §2, §3, §4, §5
# [4] = tested on: Human prostate cancer PC-3 cells; assay: Detachment and apoptotic nuclear changes in PC-3 cells; assay type: cell-based; settings: PC-3, 10 μM, 36 h
# Protocol: as §2, §3
# Human prostate cancer PC-3 cells were treated with 10 μM Compound A, etoposide, or an equal percentage of vehicle (DMSO), followed by separation of the attached and detached cell populations. Both attached and detached cell populations were then used for detection of apoptotic nuclear changes. After 36 h treatment with Compound A, ˜50% of PC-3 cells became detached.
# [5] = tested on: human breast cancer MCF-7 cells; assay: Detachment and apoptotic nuclear changes in MCF-7 cells; assay type: cell-based; settings: MCF-7, 24 h
# Protocol: as §2, §3
# (§6) Detachment was also found in at least half of human breast cancer MDA-MB-231 and MCF-7 cells, after exposure to Compound A for 24 h.
# [6] = tested on: Jurkat cells transfected with a control vector; assay: Apoptotic nuclear changes (Hoechst staining) in Jurkat cells transfected with control vector; assay type: cell-based, human; settings: 50 μM, 8 h
# Protocol: (§7) b. Cell culture. Human Jurkat T and HL-60 cells were grown in RPMI 1640 (Life Technologies, Inc.) supplemented with 10% fetal calf serum (Sigma), 100 units/ml of penicillin, 100 μg/ml of streptomycin and 2mM L-glutamine (growth medium). Jurkat T. cells overexpressing the Bcl-2 oncoprotein or vector alone (provided by Dr. D. Johnson, University of Pittsburgh, Pa.) were grown in the same growth medium with […] G418. Human cancer cell lines of breast (MCF-7, MDA-MB-231), prostate (DU145, PC3) and osteosarcoma (U2-OS), obtained from American Type Culture Collection (ATCC. Rockville, Md.)), were also grown in the RPMI growth medium. Human oral (SCC-25; from ATCC) and brain (SNB-19; Welch, W. C., et al. In Vitro Cell. Dev. Biol., 31:610-616, 1995) cancer cell lines, and normal (WI-38) and SV40-transformed human fibroblasts (WI-38 VA-13; from ATCC) were grown in DMEM medium containing 10% fetal calf serum, penicillin, streptomycin and L-glutamine.
# as §3
# The apoptosis-inducing potency of Compound A was compared with two standard chemotherapeutic anti-cancer agents, etoposide and cisplatin. […] By comparison, treatment with 50 μM etoposide for 8 h induced only ˜47% of these cells to undergo apoptosis (FIG. 3, panels c vs. a). Treatment of 10 μM Compound A, but not etoposide or cisplatin, induced apoptosis in human prostate, breast, tongue and brain cancer cells and also in SV40 DNA virus-transformed human fibroblasts (see FIGS. 5-7).
# [7] = tested on: human breast cancer MDA-MB-231 cells; assay: Detachment and apoptotic nuclear changes in MDA-MB-231 cells; assay type: cell-based; settings: MDA-MB-231, 24 h
# Protocol: as §2, §3, §6
# [8] = tested on: Bcl-2-overexpressing Jurkat cells; assay: Apoptosis in Bcl-2-overexpressing Jurkat cells (nuclear staining, western blot); assay type: cell-based, human
# Protocol: as §7, §3, §4
# It has been shown that overexpression of Bcl-2 oncoprotein inhibits apoptosis in many cell systems (Miura, M., et al., J. Cell 75: 653-660, 1993). Bcl-2 expression in human Jurkat T cells for inhibition of Compound A-induced apoptosis was investigated.
# [9] = tested on: human prostate cancer DU145 cells; assay: Detachment and apoptotic nuclear changes in DU145 cells; assay type: cell-based; settings: DU145, 16 h
# Protocol: as §2, §3
# Similar to PC-3, about half of human prostate cancer DU145 cells became detached after exposure to Compound A for 16 h.
# [10] = tested on: p21 and p27 in human breast cancer MDA-MB-231 cells; assay: Western blot of p21 and p27 levels in MDA-MB-231 cells; assay type: cell-based; settings: MDA-MB-231, 17 hours, concentrations up to 100 μM
# Protocol: as §4
# Additionally, a band of 70 kDa whih may represent ubiquinated p70 was also observed. In contrast, etoposide caused only limited accumulation of p21 (≦4-fold) and p27 (≦2-fold) at 17 hours when used at concentrations up to 100 μM.
# [11] = target: MCP chymotrypsin-like activity (Homo sapiens, UniProt P28074); assay: Inhibition of MCP chymotrypsin-like activity; assay type: biochemical
# Source text: as §1
# Inhibition of the chymotrypsin-like activity of MCP by the disclosed MCP inhibitors has been reported, but these MCP inhibitors produced relatively little inhibition on the MCP trypsin-like activity and cathepsin B, a vacuolar cysteine protease (Iqbal, M., et al. J. Med Chem. 38: 2276-2277, 1995; Iqbal, M., et al. Bioorg. Med. Chem. Lett. 6: 287-290, 1996; and Harding, C. V., et al. J. Immuno. 155: 1767-1775, 1995). Furthermore, the order of potency for inhibition of the chymotrypsin-like activity was reported to be Compound A>Compound B>Compound C by using both isolated MCP and intact murine B cells (Iqbal, M., et al. J. Med Chem. 38: 2276-2277, 1995; Iqbal, M., et al. Bioorg. Med. Chem. Lett. 6: 287-290, 1996; and Harding, C. V., et al. J. Immuno. 155: 1767-1775, 1995).
# [12] = tested on: human leukemia HL-60 cells; assay: Apoptosis in HL-60 cells (DNA fragmentation, PARP cleavage); assay type: cell-based
# Protocol: as §3, §4
# Example 1 was designed to determine if MCP is involved in the survival signaling pathway(s) and if inhibition of MCP activity induces apoptosis. Human Jurkat T cells were treated with 30 μM Compound A for 4 h. […]
# [13] = tested on: human Jurkat T cells; assay: Apoptosis in Jurkat T cells (flow cytometry sub-G1 DNA content, DNA fragmentation); assay type: cell-based; settings: for Increase in the apoptotic population with sub-G1 DNA content: Jurkat T cells, 15 μM, 8 h
# Protocol: as §2, §3
# (§8) Example 1 was designed to determine if MCP is involved in the survival signaling pathway(s) and if inhibition of MCP activity induces apoptosis. Human Jurkat T cells were treated with 30 μM Compound A for 4 h. […] Both the p112 and p115 forms of RB as p112-115/RB were combined and used as an apoptosis marker.
# When human Jurkat T cells were treated with 15 μM Compound A for 8 h, there was a 23% increase in the apoptotic population with sub-G1 DNA content (FIG. 2, panels b vs. a). By comparison, when Compound B was used, only an 8%-increase in sub-G1 population was detected (FIG. 2, panels c vs. a).
# [14] = tested on: PARP, RB and caspase-3 cleavage in Jurkat T cells; assay: Western blot of caspase-3, PARP and RB in Jurkat T cells; assay type: cell-based, human; settings: Jurkat T cells, 15 μM, time course up to 24 h
# Protocol: as §4, §8
# The ability of these three MCP inhibitors to induce changes in PARP and RB proteins in a parallel experiment was also investigated. […] This rank corresponded exactly to that of the three compounds for inhibition of the chymotrypsin-like activity in isolated proteasomes (Iqbal, M., et al. J. Med Chem. 38: 2276-2277, 1995; Iqbal, M., et al. Bioorg. Med. Chem. Lett. 6: 287-290, 1996) and in intact murine B cells (Harding, C. V., et al. J Immuno. 155: 1767-1775, 1995).
molecule,measurement,setting,value
COC(=O)CCCCCCCCC(C(=O)N[C@@H](CCCNC(=N)NS(=O)(=O)c1ccc2c(c1)CCC(C)(C)O2)C(=O)NC(C=O)CC(C)C)C1CCCC1 (some centres unmarked) [F],IC50,[1],1700 nM
"COc1cc([C@@H]2c3cc4c(cc3[C@@H](O[C@@H]3O[C@@H]5CO[C@@H](C)O[C@H]5[C@H](O)[C@H]3O)[C@H]3COC(=O)[C@H]23)OCO4)cc(OC)c1O [etoposide, reference compound]",Detachment and apoptotic nuclear changes,[2],did not induce apoptosis in either transformed or normal WI-38 cells
same,Detachment and apoptotic nuclear changes,[3],did not induce apoptosis in either transformed or normal WI-38 cells
same,Detached cells,[4],Little or no detachment
same,Nuclear morphology (apoptotic condensation and fragmentation),[4],"all the remaining attached cells contained normal, round nuclei"
same,Apoptosis by nuclear staining,[5],did not induce apoptosis
same,Cells exhibiting apoptotic nuclear changes,[6],~47%
same,Apoptosis by nuclear staining,[7],did not induce apoptosis
same,Effect of Bcl-2 expression on induced PARP and RB changes,[8]; 50 μM,inhibited these PARP and RB changes
same,Effect of Bcl-2 expression on induced apoptotic nuclear changes,"[8]; etoposide treatment as in FIG. 3 (50 μM, 8 h)",blocked the apoptotic nuclear changes induced by etoposide
same,Detached cells,[9],very little detachment
same,Nuclear morphology,[9],the remaining attached cells still contained normal nuclei
same,Accumulation of p21,[10],≤ 4 fold
same,Accumulation of p27,[10],≤ 2 fold
CC(C)CC(C=NNC(N)=O)NC(=O)C(CCCNC(=N)N[N+](=O)[O-])NC(=O)C(CCCCCCCCC#N)C1CCCC1 (centres unmarked) [H],IC50,[11],300 nM
same,IC50,[1],> 30000 nM
CC(C)C[C@@H](C=O)NC(=O)[C@@H](CCCNC(=N)N[N+](=O)[O-])NC(=O)C(CCCCCCCCC#N)C1CCCC1 (some centres unmarked) [Compound B],IC50,[11],6 nM
same,IC50,[1],1600 nM
same,Internucleosomal fragmentation of DNA,[12],induced internucleosomal fragmentation of DNA
same,Increase in the apoptotic population with sub-G1 DNA content,[13],8%
same,Production of p85/PARP and p112-115/RB,[14],much less p85/PARP and p 112-115/RB were found before 8 h
COC(=O)CCCCCCCCC(C(=O)N[C@@H](CCCNC(=N)NS(=O)(=O)c1ccc2c(c1)CCC(C)(C)O2)C(=O)N[C@H](C=O)CC(C)C)C1CCCC1 (some centres unmarked) [F],IC50,[11],10 nM
"Acetyl-YVAD-chloromethyl ketone [YVAD-CMK, reference compound]","Block of Compound A-induced apoptotic events (apoptotic peak, caspase-3 processing, PARP cleavage, RB dephosphorylation and cleavage)",[13]; added to Compound A-treated Jurkat T cells,completely blocked
Cc1c(C)c(S(=O)(=O)NC(=N)NCCC[C@H](NC(=O)C(CCCCCCCCC#N)C2CCCC2)C(=O)N[C@H](C=O)CC(C)C)c(C)c2c1OC(C)(C)CC2 (some centres unmarked) [G],IC50,[11],20 nM
same,IC50,[1],5700 nM
CCNC(=O)C(=O)C(CC(C)C)NC(=O)C(CCCN/C(N)=N/[N+](=O)[O-])NC(=O)C(CCCCCCCCC#N)C1CCCC1 (centres unmarked) [Compound C],IC50,[11],21 nM
same,IC50,[1],9700 nM
same,Increase in the apoptotic population with sub-G1 DNA content,[13],did not induce apoptosis
same,Production of p85/PARP and p112-115/RB,[14],only induced little p85/PARP and p112-115/RB after 24 h
